According to PubChem BioAssay (NCI):
Several values for one entry are separate records, joined by “and”; a condition that tells them apart may be missing. Identical values can stand only once.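 48-hour exposure; five concentrations; linearly interpolated endpoints. GI50 = concentration required for 50% inhibition of growth. Definition used: TGI = concentration required for complete inhibition of growth.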

What was measured:
Assay in all cases: growth of human tumour cells (NCI), 48 h
[1] = test system: MCF7 breast
[2] = test system: HOP-62 NSCLC
[3] = test system: SF-295 CNS
[4] = test system: RPMI-8226 leukemia
[5] = test system: CCRF-CEM leukemia
[6] = test system: 786-0 renal
[7] = test system: SF-539 CNS
[8] = test system: OVCAR-4 ovarian
[9] = test system: SK-MEL-28 melanoma
[10] = test system: HT29 colon

Row | SMILES | GI50 [1] | TGI [1] | GI50 [2] | TGI [2] | GI50 [3] | TGI [3] | GI50 [4] | TGI [4] | GI50 [5] | TGI [5] | GI50 [6] | TGI [6] | GI50 [7] | TGI [7] | GI50 [8] | TGI [8] | GI50 [9] | TGI [9] | TGI [10] | GI50 [10]
1 | NC(N)=N/N=C/c1c(-c2cccnc2)nc2sc(Cl)cn12 | 8.27 µM | > 100 µM | 18 µM | 31.9 µM | 13.8 µM | 28.1 µM | 18000 nM | 42 µM | 6.66 µM | 23.9 µM | 17 µM | 46.6 µM | 13.4 µM | 26.3 µM |  |  |  |  |  | 
2 | O=C1c2c(Cl)c(Cl)c(Cl)c(Cl)c2C(=O)C2(Cl)CC=CCC12Cl (stereo not drawn) | 1.58 µM | 3.55 µM | 1.86 µM | 3.65 µM | 3.35 µM | 11.2 µM | 2310 nM | 6.12 µM | 1.76 µM | 7.28 µM | 2 µM | 3.62 µM | 2.06 µM | 4.05 µM | 1900 nM | 3.41 µM | 1800 nM | 3.28 µM |  | 
3 | O=C(O)c1c2c(cc3c(=O)cc(-c4ccccc4)oc13)CCCC2 |  |  |  | > 100 µM |  | > 100 µM |  | > 100 µM |  | > 100 µM |  | > 100 µM |  | > 100 µM |  | > 100 µM |  | > 100 µM | > 100 µM | 
4 | CC[PH+](CC)CC.CC[PH+](CC)CC.[Au] |  |  | 22 µM | 36.6 µM | 13.5 µM | 26.9 µM | 3870 nM | 30.2 µM | 2.04 µM | 11.9 µM | 7.35 µM | 19.7 µM | 8.3 µM | 25.3 µM | 12500 nM | 25.1 µM | 3880 nM | 16.9 µM | 32.4 µM | 16300 nM
5 | O=C(c1ccccc1)c1nc2ccc(C(F)(F)F)cc2nc1N1CCN(c2ccccc2)CC1 | 48.2 µM | > 100 µM | 60.9 µM | > 100 µM | 42.8 µM | > 100 µM | 23300 nM | > 100 µM | 21 µM | > 100 µM | 30.7 µM | 76.1 µM | 52.9 µM | > 100 µM |  |  |  |  |  | 
6 | CN1CCN(CCCN2c3ccccc3Sc3ccc(Cl)cc32)CC1 | 5.79 µM and 47.1 µM | 14 µM and 63 µM | 6.32 µM and 48.5 µM | 13.6 µM and 85.6 µM | 6 µM and 33.2 µM | 12.8 µM and 55.6 µM | 6160 nM | 16 µM | 6.46 µM | 15.1 µM | 6.15 µM and 38 µM | 12.8 µM and 61.4 µM | 7.49 µM and 51.6 µM | 14.6 µM and 87.9 µM | 5740 nM | 12.4 µM |  |  |  | 
7 | C/C=C(\C)C(=O)O[C@H]1C=CC(=O)O[C@H]1COC(=O)[C@H](C)O | 3.4 µM | 14.1 µM | 19.8 µM | 35.4 µM | 13.1 µM | 28.9 µM | 3200 nM | 14.5 µM |  |  | 6.59 µM | 20.9 µM | 9.73 µM | 23.3 µM | 5970 nM | 21.5 µM | 3530 nM | 11.5 µM | 17.4 µM | 3760 nM
8 | CC(C)=NNC(=S)NC12CC3CC(CC(C3)C1)C2 |  |  |  | > 100 µM |  | > 100 µM |  | > 100 µM |  | > 100 µM |  | > 100 µM |  | > 100 µM |  | > 100 µM |  | > 100 µM | > 100 µM | 
9 | Cc1ccc(C(=O)NCCN(C)C)c2nc3ccccc3cc12 |  |  |  | > 100 µM |  | 3.8 µM |  | > 100 µM |  | > 100 µM |  | > 100 µM |  |  |  | > 100 µM |  | 5.46 µM | 11.3 µM | 
10 | O=C1C(=O)N(c2ccc(Cl)cc2)C(=O)C(=Nc2cccc3c(=O)[nH][nH]c(=O)c23)C1c1nc2ccccc2o1 (stereo not drawn) |  |  |  | > 100 µM |  | > 100 µM |  | > 100 µM |  | > 100 µM |  | > 100 µM |  | > 100 µM |  | > 100 µM |  | > 100 µM | > 100 µM | 
11 | O=S(=O)(NCCCNc1cc(-c2cn(-c3ccccc3)nc2-c2cccc(O)c2)ccn1)c1ccc(Br)cc1 | 1.76 µM | 5.16 µM | 1.88 µM | 4.59 µM | 1.36 µM | 3.09 µM | 1450 nM | 4.68 µM |  |  | 1.5 µM | 4.29 µM | 1.69 µM | 4.01 µM | 1860 nM | 8.65 µM | 1970 nM | 4.31 µM | 2.35 µM | 639 nM
12 | Cc1ccc(S(=O)(=O)OCCOCCOCCOCCOCCOS(=O)(=O)c2ccc(C)cc2)cc1 |  |  |  | > 100 µM |  | > 100 µM |  | 92.7 µM |  | 66.4 µM |  | > 100 µM |  |  |  | > 100 µM |  | > 100 µM | > 100 µM | 
13 | C=CC(=O)Nc1cccc(Oc2nc(Nc3ccc(N4CCN(C)CC4)cc3OC)ncc2Cl)c1 |  |  | 3.01 µM | 12.1 µM | 2.21 µM | 5.81 µM | 1970 nM | 5.1 µM | 3.17 µM | > 26.3 µM | 1.47 µM | 2.94 µM | 1.98 µM | 3.72 µM | 2360 nM | > 39.4 µM | 2020 nM | 4.07 µM | 4.53 µM | 2080 nM
14 | CCNCCNc1cc(-c2ccc(C(F)(F)F)cc2)c(C#N)c2nc3cc(Cl)c(Cl)cc3n12 | 0.168 µM | 0.352 µM | 1.96 µM | 3.56 µM | 1.73 µM | 3.2 µM | 1710 nM | 3.85 µM |  |  | 1.53 µM | 3.02 µM | 1.74 µM | 3.23 µM | 1410 nM | 3.14 µM | 1400 nM | 2.89 µM | 3.08 µM | 1640 nM
15 | CN(/N=C\c1ccnc2ccccc12)c1ccccc1 |  |  |  | 81.6 µM |  | 71.5 µM |  | > 100 µM |  | 45.1 µM |  | 37.7 µM |  | 71.6 µM |  | 89.4 µM |  | 82.7 µM | 35.9 µM | 
16 | O=C(O)CN(c1ccc(F)cc1)S(=O)(=O)c1ccccc1 |  |  |  |  |  | > 100 µM |  | > 100 µM |  | > 100 µM |  | > 100 µM |  | > 100 µM |  | > 100 µM |  | > 100 µM | > 100 µM | 
17 | COc1cc2c(c(OC)c1OC)-c1c(c3ccc([N+](=O)[O-])cc3c(=O)n1CCCN)C2=O | 14.2 µM | > 50 µM | 0.937 µM | 1.73 µM | 1.86 µM | 7.82 µM | 1290 nM | 3.75 µM | 0.826 µM | 2.12 µM | 0.799 µM | 1.51 µM | 1.38 µM | 3.28 µM | 2900 nM | 12.9 µM |  |  |  | 
